The text below walks through data of PMC3089604 (PLoS ONE, 2011).

Where two headings read alike, the source gives them in different places.

Series [1] deals with tau phosphorylation in 4R0N tau overexpressing H4 neuroglioma cells. The experiment in a line: Cell culture tau assay: western for total and phosphorylated tau after 96 h compound treatment. The class given is cell-based. Conditions: for 12E8 % Control pTau/Total / pS396 % Control pTau/Total / pT231 % Control pTau/Total: normalized to total tau. As for the experimental part:
4R0N tau overexpressing H4 neuroglioma cells were maintained in Dulbecco's Modified Eagle Medium (Invitrogen) supplemented with 10% fetal bovine serum (Invitrogen), 1% penicillin-streptomycin, geneticin (0.25 mg/ml), and 2 mM L-Glutamine (Invitrogen). Cells were maintained by splitting 1∶10 at 90% confluency. Prior to any experimentation, cells were 70–75% confluent to ensure cells were in their active growth phase. To test effects of DYRK1A knockdown on tau phosphorylation, cells were transfected with DYRK1A siRNA. Prior to treating cells with DYRK1A siRNA, siRNA was first complexed with siLentfect lipid transfection reagent (Bio-Rad) and reduced serum medium (Invitrogen) using a 6 well plate format. The final effective siRNA molarity used was 22.85 nM per well. Cells were grown for 96 hours at 37°C, 5% CO2. Cell lysates were prepared using the Complete Lysis-M, EDTA-free kit (Roche Applied Science) and total protein concentration was quantified using the BCA protein assay (Pierce). Westerns for the multiple forms of tau were performed as described below.
For all cell-based experiments, including siRNA treatments and compound treatments, cells were treated for 96 hours at 37°C, with 5% CO2. Cell lysates were then prepared using the Complete Lysis-M, EDTA-free kit (Roche Applied Science) supplemented with phosphatase inhibitor cocktails 1 and 2 (Sigma). Lysates were quantified using the BCA protein assay (Pierce). Protein from lysates (30 µg total protein per lane) was separated on SDS-PAGE gels and transferred to nitrocellulose membrane. Membranes were blocked in 5% blocking solution for one hour at room temperature (RT). Blocking buffer solution used for detection of non phosphorylated protein contained 5% Non-fat dry milk in 1×-TBS-T (50 mM Tris-HCl pH 7.4, 137 mM […], 2.7 mM KCl, 0.1% Tween). For detection of phosphorylated protein, blocking buffer solution contained 5% Bovine Serum Albumin in 1× TBS-T. Membranes were probed with primary antibody (various dilutions depending on the epitope – see below) in blocking buffer overnight at 4°C on a rocker. Membranes were subsequently washed with 1× TBS-T and probed with secondary antibody in blocking buffer for forty-five minutes using a 1∶25,000 dilution of HRP-GAM or HRP-GAR (Jackson Immunoresearch), depending on the species (mouse or rabbit) in which the primary antibodies were raised. Following incubation with secondary antibody, membranes were washed in 1× TBS-T and developed with Super Signal West Femto Maximum Sensitivity Substrate Kit ([…]) and digitally imaged. Protein band signal saturation was assessed before any further analysis of multiple forms of tau. Alpha Innotech Fluoro Chem SF imaging software verifies degrees of saturation when signal intensity is beyond the dynamic range (which is from 0–65,535). Protein band signal intensities used for quantification were within the instrument's dynamic range.
To test multiple primary antibodies, membranes were stripped for 15 minutes at RT using ReBlot Plus Mild Antibody Stripping Solution (Millipore). Membranes were then washed for 5 minutes in 1× TBS-T and blocked for one hour in 5% blocking solution at RT. For verification of protein loading, membranes were reprobed overnight at 4°C with an anti-Tubulin primary antibody (1∶1000 dilution; Cell Signaling). Primary antibodies used for detection included anti-tau (1∶2000 dilution; Dako), 12E8 tau (1∶7500 dilution; Peter Seubert, Elan Pharmaceuticals), pT231 tau (1∶1000 dilution; Abcam), pS396 tau (1∶5000 dilution; Abcam), and anti-DYRK1A (1∶500 dilution; Santa Cruz).
Cells undergoing any treatment, including β-carboline derivative dosing and siRNA treatment, were maintained in Dulbecco's Modified Eagle Medium (Invitrogen) supplemented with 10% fetal bovine serum (Invitrogen) and 2 mM L-Glutamine (Invitrogen). Viability assays were performed using a 96-well pate format. […]

For the next series, the system named is MAO-A. Further details: method as in PMID 18980841. The following applies: read-out: IC50 against MAO-A; cited from earlier work.
A further series deals with T1, recombinant human DYRK1A (Homo sapiens, UniProt Q13627).
T1 construct: purchased Invitrogen
Briefly: In vitro kinase assay: DYRK1A catalyzed direct phosphorylation of recombinant tau on serine 396 (western). The class given is biochemical. The following applies: for IC50: recombinant DYRK1A + 4R2N tau, 1 mM ATP.

The nature of series [2]: alamar Blue viability (toxicity) assay. In kind it is cell-based. The following applies: human; H4 neuroglioma cells, drug renewed every 24 h for four days; read-out: IC50 for viability (concentration resulting in 50% cell viability). As for the experimental part: Cells undergoing any treatment, including β-carboline derivative dosing and siRNA treatment, were maintained in Dulbecco's Modified Eagle Medium (Invitrogen) supplemented with 10% fetal bovine serum (Invitrogen) and 2 mM L-Glutamine (Invitrogen). Viability assays were performed using a 96-well pate format. Metabolic activity was measured 12 hours after the addition of 10% alamar Blue (Invitrogen) directly to attached cells in full medium. This assay was based on the ability of metabolically active cells to convert alamar Blue reagent into a fluorescent signal proportional to innate metabolic activity. Once the ideal IC50 value for viability was identified, effects on multiple forms of tau were investigated after treating with the β-carbolines indicated in Table S1 using the larger 6 well plate format. For both the viability assay and cell culture tau assays, cell culture media was removed and cells were treated with freshly made drug in new media every 24 hours for four days. For cell culture tau assays, protein lysates were prepared after 96 hours of treatment. All compounds were solubilized in dimethylsulfoxide (DMSO), diluted in growth medium to their respective 0.01 µM, 0.1 µM, 1 µM and 10 µM final working dilutions and added directly to cultured cells. The final DMSO percentage in culture for all compounds and concentrations tested was 0.1%. […]
(The colour change of resazurin is a common sign of viable cells or microbes.)

The subject of another series is DYRK1A. Further details: method as in PMID 17850214. Conditions: synthetic peptide substrate; read-out: IC50 against DYRK1A; cited from earlier work.
Setting [3] is: 30 min 30C, read-out: IC50 for inhibition of DYRK1A dependent tau phosphorylation at serine 396 (pS396).
Where [4] appears, read: read-out: IC50 for inhibition of DYRK1A dependent tau phosphorylation at serine 396.

With `O=C(NCCN1CCOCC1)c1ccc(Cl)cc1` [Moclobemide], in series [1] (500 µM (highest concentration), 96 h), the “12E8 (pS262/pS356) tau % Control” value was 116 ± 10 % Control. In series [1] (500 µM, 96 h), the “Total Tau % Control” value came out at 103 ± 7 % Control, the “pS396 tau % Control” value came to 98 ± 9 % Control and the “pT231 tau % Control” value came out at 118 ± 13 % Control. In series [1] (500 µM), the “12E8 % Control pTau/Total” value is given as 112 ± 8 % Control, the “pS396 % Control pTau/Total” value is 95 ± 9 % Control and the “pT231 % Control pTau/Total” value was 114 ± 12 % Control. Further, the “Effect on levels of total tau or specific phosphorylated forms of tau” value in series [1] (doses up to 500 µM) is listed as “did not reduce”. Also, in the series with MAO-A, the IC50 is 3.9 µM.
With `c1ccc2c(c1)[nH]c1cnccc12` [Norharmane, norharmane], the IC50 at recombinant human DYRK1A (setting [3]) was found to be 45 µM.
For the molecule `Cc1[nH]ccc2c1[nH]c1cc(=O)ccc12` [Harmol, harmol], on recombinant human DYRK1A (setting [4]), the IC50 turned out to be 0.09 µM.
In the case of `Cc1nccc2c1[nH]c1ccccc12` [Harmane, harmane], the IC50 at recombinant human DYRK1A (setting [3]) came out at 15 µM.
For `COc1ccc2c(c1)[nH]c1c(C)nccc12` [Harmine], in series [2], the IC50 at 4 days was 12 µM. In addition, in series [1] (8 µM, 96 h, H4-tau cells), the “12E8 (pS262/pS356) tau % Control” value was 32 ± 7 % Control, the “Total Tau % Control” value is reported as 55 ± 9 % Control, the “pS396 tau % Control” value is given as 49 ± 8 % Control and the “pT231 tau % Control” value worked out at 24 ± 6 % Control. Moreover, in series [1] (8 µM, 96 h), the “12E8 % Control pTau/Total” value was 58 ± 6 % Control, the “pS396 % Control pTau/Total” value is listed as 89 ± 7 % Control and the “pT231 % Control pTau/Total” value is listed as 44 ± 5 % Control. Also, in series [1] (8 µM, 96 h, listed as harmine), the “12E8 % Control pTau/Total” value was determined as 58 % Control and the “pT231 % Control pTau/Total” value was found to be 44 % Control. Besides, the “Concentration at which tau levels were significantly reduced (p<0.05)” value in series [1] (H4-tau cells, 96 h) amounted to […]. Moreover, the IC50 in the series with DYRK1A was […].
Consider `CCn1c2cc(OC)ccc2c2ccnc(C)c21` [9-ethylharmine], for which, on recombinant human DYRK1A (pS396 in vitro phosphorylation, ethyl group on N-9 vs harmine), the “Reduction of IC50 relative to harmine” value is given as about 2 fold. In addition, the IC50 on recombinant human DYRK1A (setting [4]) is 0.4 µM. The “Concentration at which tau levels were significantly reduced (p<0.05)” value in series [1] (H4-tau cells, 96 h) is given as 1 µM.
For the molecule `COc1ccc2c3c([nH]c2c1)C(C)=NCC3` [Harmaline, harmaline], the IC50 on recombinant human DYRK1A (setting [3]) worked out at 9 µM.
